Assays:
human epithelial cells = assay: BaP-induced genotoxic stress (p53 protein levels); type: cell-based; settings: SDG 5, 10, 25 and 50 μM
Description: Similarly, SDG prevents genotoxic stress in human epithelial cells exposed to BaP. Exposure of cells to a potent carcinogen such as BaP, induces genotoxic stress as indicated by increased levels of p53 protein (FIG. 25). […] SDG also prevents oxidative DNA damages in human epithelial cells exposed to BaP. Exposure of cells to a potent carcinogen such as BaP, induces oxidative DNA damage as indicated by increased levels of gamma-H2AX, a marker for double-stranded DNA breaks (FIG. 26). […] Furthermore, SDG prevents DNA adduct formation in human epithelial cells exposed to BaP. Exposure of cells to a potent carcinogen such as BaP, induces the formation of DNA adducts (FIG. 27). DNA adducts are pieces of DNA covalently linked to a carcinogen and is directly linked to the development of malignancy. The DNA adduct levels is decreased by the presence of SDG or its metabolites ED and EL given alone or in combination.

[1] = Hypochlorite-induced chlorination of 2-aminopurine (2-AP)
Description: 2-AP in PBS was exposed to hypochlorite and fluorescence spectra recorded between 360-390 nm with the emission maximum at 374 nm. The % change in 2-AP calculated.

[2] = typical range, earlier work; read-out: EC50 values for free radical scavenging and antioxidant effects; cited from earlier work
[3] = tested on: AOE gene expression (HO-1, NQO1, GST); assay: AOE gene expression in lung in the pharmacokinetic study; type: in vivo, mouse; settings: 100 mg SDG/Kg oral; p<0.05
Description: After selecting the 100 mg/kg dose as a dose that induces significant AOE expression while allowing for SDG to be detected in circulation, a pharmacokinetic study was performed to determine bioavailability and biological effects in target tissues (i.e., lung). Blood samples as well as tissues (lung, brain, liver, kidneys, spleen) were collected at 15 min, 30 min, and 1, 2, 4, 6, 8, 12 hours. SDG levels were determined as above in plasma and lung (FIGS. 41A-C). A single dose of 100 mg SDG/Kg was well absorbed and intact SDG was detectable in the circulation up to 6 hours post administration (FIG. 41A) and in flushed, blood-free lung tissues for 4 hours (FIG. 41B). […] The observed gene expression increase correlated with an increase in protein levels determined by western blotting (not shown). […] The use of SDG in human therapy is thus greatly facilitated and the toxicity risk is unlikely. Therefore a dose of 50-100 mg/Kg (1 or 2 mg SDG per day) is sufficient to induce the anticipated protective effects in target tissues and can be used for further study.

Structure (SMILES): COc1cc(C[C@@H](CO[C@@H]2O[C@H](CO)[C@@H](O)[C@H](O)[C@H]2O)[C@H](CO[C@@H]2O[C@H](CO)[C@@H](O)[C@H](O)[C@H]2O)Cc2ccc(O)c(OC)c2)ccc1O [SDG, secoisolariciresinol diglucoside]
- p53 protein levels (genotoxic stress) (human epithelial cells): mitigated dose-dependently
- Hypochlorite-induced decrease of 2-AP fluorescence, pre-treatment ([1]; 10 μM hypochlorite, SDG pre-treatment 60 seconds): prevented
- Hypochlorite-induced 2-AP modification, post-treatment ([1]; SDG added +15 to +300 seconds after ClO^−): significant recovery
- EC50 [2]: 130 to 200 µM
- AOE gene expression levels (HO-1, NQO1, GST) over baseline [3]: significantly elevated

Reference: patent publication US10966995B2, “Use of secoisolariciresinol diglucosides (SDGS) and related compounds for protection against radiation and chemical damage” (THE TRUSTEES OF THE UNIVERSITY OF PENNSYLVANIA, priority 2014, dated 2021)
